Measurements as given in EP4806894A1, “TNAP INHIBITORY COMPOUND AND USE THEREOF” (Rednvia Co., Ltd., priority 2023, dated 2025).
Counter-ions that a name gives are not always drawn.

Legend:
[1] = target: T1, TNAP (Homo sapiens, UniProt P05186); assay: TNAP inhibitory activity, colorimetric assay (alkaline phosphatase assay kit ab83369, pNPP substrate); format: biochemical; details: TNAP enzyme, 2 hours at room temperature, absorbance 405 nm
T1 sequence (P05186 18-502 limits assumed): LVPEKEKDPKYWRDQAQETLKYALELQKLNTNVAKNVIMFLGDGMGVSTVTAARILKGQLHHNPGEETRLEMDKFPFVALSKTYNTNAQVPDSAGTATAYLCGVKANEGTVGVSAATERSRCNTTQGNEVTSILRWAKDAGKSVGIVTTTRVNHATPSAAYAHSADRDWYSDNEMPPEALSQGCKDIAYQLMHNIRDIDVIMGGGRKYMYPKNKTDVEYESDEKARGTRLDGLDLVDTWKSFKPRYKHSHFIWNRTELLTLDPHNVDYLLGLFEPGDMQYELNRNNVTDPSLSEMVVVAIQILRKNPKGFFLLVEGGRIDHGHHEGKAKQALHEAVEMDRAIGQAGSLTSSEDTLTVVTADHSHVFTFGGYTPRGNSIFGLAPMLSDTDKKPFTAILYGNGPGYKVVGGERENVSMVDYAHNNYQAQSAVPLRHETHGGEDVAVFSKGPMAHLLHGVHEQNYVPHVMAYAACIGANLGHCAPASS
Procedure: The TNAP inhibitory activity of the compounds according to the present invention was analyzed by colorimetric assay.
The experiments were performed according to the protocol of the alkaline phosphatase assay kit ab83369.
TNAP enzyme at a concentration of 0.2 ng/µl was dispensed into a 96-well plate (Costar) (10 µl/well), to which the 10-fold diluted test substance was added (15 µl/well). The plate was incubated at room temperature, shielded from light, for 10 minutes to allow the enzyme and compound to act. After incubation, 125 µl of 1 mM substrate (pNPP) was added to each well of the plate, and the plate was incubated for 2 hours at room temperature in a darkened state to allow the enzyme, substrate, and test compound to act. Absorbance was measured at 405 nm using a microplate reader (Tecan spark), and IC50 was calculated using GraphPad Prism 9. The amount of p-nitrophenol produced was calculated through the absorbance, and the degree of TNAP activity inhibition was evaluated through the degree of inhibition of p-nitrophenol production, and the concentration of the compound that inhibited 50% was calculated as the IC50 value.

[2] = system: saos-2 cells; assay: Anticalcification efficacy in saos-2 cells (osteogenic medium, Alizarin Red staining); format: cell-based; details: test compound 1 µM, 7 days osteogenic medium, Alizarin Red absorbance 540 nm; for inhibition at 1 µM: Homo sapiens, 168 h, read-out: calcification inhibition
Procedure: To confirm the inhibitory effect of calcification in saos-2 cells in which calcification is induced by overexpression of TNAP, saos-2 cells were cultured in a culture medium in an incubator at 37°C, 95% humidity, and 5% CO2. RPMI-1640 (Corning) supplemented with 10% FBS (Gibco) and 1% Pen/Strep (Gibco) was used as the culture medium.
Saos-2 cells were seeded in a 48-well plate at the density of 1.5 x 10^4 cells/well and used in the experiment when they reached 80-90% confluence after stabilization for 2 days.
After saos-2 cells were cultured in a 48-well plate to 80-90% confluence, the culture medium was removed and replaced with an osteogenic medium (OM). DMEM (Gibco) containing 10% FBS, 1% Pen/Strep, 100 nM dexamethasone (Sigma), 10 mM β-glycerophosphate (Sigma), and 0.05 mM L-ascorbic acid (Sigma) was used as the OM. Osteogenic differentiation of saos-2 cells by OM was induced for 7 days, and OM was replaced every 2 to 3 days.
When inducing calcification through OM in saos-2 cells, the cells were treated with concentrations of […] of the TNAP inhibitor test compounds with the OM replacement cycle, except for the control group (OM).
After 7 days of OM induction, the medium was removed from each well and the plate was washed twice with PBS. Cells were fixed with 4% paraformaldehyde for 1 hour, then the fixative was removed and washed twice with deionized water (DW). ARS solution was added to the plate and shaken for 1 hour to stain the cells. When the cells were sufficiently stained red, the dye was removed, the cells were washed carefully with DW, dried, and then photographs were taken of the stained cells. The red-stained area represents calcification induced by OM, and the degree of calcification was determined based on the degree of redness. To quantify this, 10% cetylpyridinium chloride was dispensed into the wells and the dye was dissolved. The dye-dissolved solution was transferred to each well of a 96 well plate and absorbance was measured at 540 nm.
The degree of decrease in the measured absorbance by the test compounds based on the absorbance for OM was evaluated as the degree of inhibition of calcification.

| Compound | IC50 [1] [nM] | inhibition at 1 µM [2] [%] | calcification inhibition [2] |
| --- | --- | --- | --- |
| COc1ccc(C2=CCNCC2)cc1S(=O)(=O)Nc1cnc2c(c1)C(=O)NCC2 [Example 53, 2-methoxy-N-(5-oxo-5,6,7,8-tetrahydro-1,6-naphthyridine-3-yl)-5-(1,2,3,6-tetrahydropyridine-4-yl)benzenesulfonamide hydrochloride] | 100 to 1000 | 0 to 50 |  |
| COc1ccc(Br)cc1S(=O)(=O)Nc1cnc2c(c1)C(=O)N(C)CC2 [Example 87, 5-bromo-2-methoxy-N-(6-methyl-5-oxo-5,6,7,8-tetrahydro-1,6-naphthyridine-3-yl)benzenesulfonamide] | 100 to 1000 | < 0 |  |
| COc1ccc(Br)cc1S(=O)(=O)Nc1cnc2c(c1)CNCC2 [Example 93, 5-bromo-2-methoxy-N-(5,6,7,8-tetrahydro-1,6-naphthyridine-3-yl)benzenesulfonamide hydrochloride] | 10 to 100 | ≥ 50 |  |
| O=C1NCCc2ncc(NS(=O)(=O)c3cccc4c3OCC4)cc21 [Example 19, N-(5-oxo-5,6,7,8-tetrahydro-1,6-naphthyridine-3-yl)-2,3-dihydrobenzofuran-7-sulfonamide] | ≥ 1000 | < 0 |  |
| CCNC(=O)CCc1ccc(-c2ccc(OC)c(S(=O)(=O)Nc3cnc4c(c3)C(=O)NCC4)c2)cc1 [Example 67, N-ethyl-3-(4'-methoxy-3'-(N-(5-oxo-5,6,7,8-tetrahydro-1,6-naphthyridine-3-yl)sulfamoyl)-[1,1'-biphenyl]-4-yl)propanamide] | 100 to 1000 | 0 to 50 |  |
| 4'-(aminomethyl)-4-fluoro-N-(5-oxo-5,6,7,8-tetrahydro-1,6-naphthyridine-3-yl)-[1,1'-biphenyl]-2-sulfonamide hydrochloride [Example 39] | 10 to 100 |  | A (inhibition of 50% or more was expressed as "A") |
| COc1ccc(-c2cnn(C)c2)cc1S(=O)(=O)Nc1cnc2c(c1)C(=O)NCC2 [Example 57, 2-methoxy-5-(1-methyl-1H-pyrazole-4-yl)-N-(5-oxo-5,6,7,8-tetrahydro-1,6-naphthyridine-3-yl)benzenesulfonamide] | 100 to 1000 | ≥ 50 |  |
| COc1ccc(-c2cnn(C(C)(C)C(=O)O)c2)cc1S(=O)(=O)Nc1cnc2c(c1)C(=O)NCC2 [Example 60, 2-(4-(4-methoxy-3-(N-(5-oxo-5,6,7,8-tetrahydro-1,6-naphthyridine-3-yl)sulfamoyl)phenyl)-1H-pyrazole-1-yl)-2-methylpropanoic acid] | 100 to 1000 | ≥ 50 |  |
| COc1ccc(Br)cc1S(=O)(=O)Nc1cnc2c(c1)C(=O)NCCC2 [Example 14, 5-bromo-2-methoxy-N-(5-oxo-6,7,8,9-tetrahydro-5H-pyrido[3,2-c]azepine-3-yl)benzenesulfonamide] | 100 to 1000 | ≥ 50 |  |
| O=C1NCCc2ncc(NS(=O)(=O)c3c(F)cc(F)cc3-c3ccc(C4(C(=O)O)CC4)cc3)cc21 [Example 37, 1-(3',5'-difluoro-2'-(N-(5-oxo-5,6,7,8-tetrahydro-1,6-naphthyridine-3-yl)sulfamoyl)-[1,1'-biphenyl]-4-yl)cyclopropane-1-carboxylic acid] | ≥ 1000 | < 0 |  |
| O=C1NCc2ncc(NS(=O)(=O)c3cc(F)cc4c3OCC4)cc21 [Example 21, 5-fluoro-N-(5-oxo-6,7-dihydro-5H-pyrrolo[3,4-b]pyridine-3-yl)-2,3-dihydrobenzofuran-7-sulfonamide] | ≥ 1000 | < 0 |  |
| COc1ccc(-c2cn[nH]c2)cc1S(=O)(=O)Nc1cnc2c(c1)C(=O)NCC2 [Example 55, 2-methoxy-N-(5-oxo-5,6,7,8-tetrahydro-1,6-naphthyridine-3-yl)-5-(1H-pyrazole-4-yl)benzenesulfonamide] | 100 to 1000 | ≥ 50 |  |

Now from value to compound, other results behind:

| IC50 [1] [nM] | Compound | inhibition at 1 µM [2] [%] | calcification inhibition [2] |
| --- | --- | --- | --- |
| 10 to 100 | COc1ccc(OC)c(S(=O)(=O)Nc2cnc3c(c2)CN(C(=O)OC(C)(C)C)CC3)c1 [Example 89, tert-butyl 3-((2,5-dimethoxyphenyl)sulfonamido)-7,8-dihydro-1,6-naphthyridine-6(5H)-carboxylate] | ≥ 50 |  |
| 10 to 100 | COc1ccc(C2=CCCOC2)cc1S(=O)(=O)Nc1cnc2c(c1)C(=O)NCC2 [Example 62, 5-(5,6-dihydro-2H-pyran-3-yl)-2-methoxy-N-(5-oxo-5,6,7,8-tetrahydro-1,6-naphthyridine-3-yl)benzenesulfonamide] | ≥ 50 |  |
| 10 to 100 | COc1ccc(-c2c(C)noc2C)cc1S(=O)(=O)Nc1cnc2c(c1)C(=O)NCC2 [Example 84, 5-(3,5-dimethylisoxazole-4-yl)-2-methoxy-N-(5-oxo-5,6,7,8-tetrahydro-1,6-naphthyridine-3-yl)benzenesulfonamide] | ≥ 50 |  |
| 100 to 1000 | COc1ccc(Cl)cc1S(=O)(=O)Nc1cnc2c(c1)CN(C(C)C)CC2 [Example 112, 5-chloro-N-(6-isopropyl-5,6,7,8-tetrahydro-1,6-naphthyridine-3-yl)-2-methoxybenzenesulfonamide] | < 0 |  |
| 10 to 100 | COc1ccc(Br)cc1S(=O)(=O)Nc1cnc2c(c1)CN(C(=O)NCC(F)F)CC2 [Example 108, 3-((5-bromo-2-methoxyphenyl)sulfonamido)-N-(2,2-difluoroethyl)-7,8-dihydro-1,6-naphthyridine-6(5H)-carboxamide] | ≥ 50 |  |
| 10 to 100 | O=C1NCCc2ncc(NS(=O)(=O)c3cc(F)ccc3-c3ccc(C4(C(=O)O)CC4)cc3)cc21 [Example 36, 1-(4'-fluoro-2'-(N-(5-oxo-5,6,7,8-tetrahydro-1,6-naphthyridine-3-yl)sulfamoyl)-[1,1'-biphenyl]-4-yl)cyclopropane-1-carboxylic acid] | ≥ 50 |  |
| 10 to 100 | CCOC(=O)N1CCc2ncc(NS(=O)(=O)c3cc(Cl)ccc3OC)cc2C1 [Example 96, ethyl3-((5-chloro-2-methoxyphenyl)sulfonamido)-7,8-dihydro-1,6-naphthyridine-6(5H)-carboxylate] | ≥ 50 |  |
| 100 to 1000 | CCOC(=O)N1CCc2ncc(NS(=O)(=O)c3cc(F)ccc3OC)cc2C1 [Example 95, ethyl3-((5-fluoro-2-methoxyphenyl)sulfonamido)-7,8-dihydro-1,6-naphthyridine-6(5H)-carboxylate] | ≥ 50 |  |
| 10 to 100 | COc1ccc(-c2cn(C(C)C)nc2C(F)(F)F)cc1S(=O)(=O)Nc1cnc2c(c1)C(=O)NCC2 [Example 81, 5-(1-isopropyl-3-(trifluoromethyl)-1H-pyrazole-4-yl)-2-methoxy-N-(5-oxo-5,6,7,8-tetrahydro-1,6-naphthyridine-3-yl)benzenesulfonamide] | ≥ 50 |  |
| 10 to 100 | COc1ccc(-c2cnoc2)cc1S(=O)(=O)Nc1cnc2c(c1)C(=O)NCC2 [Example 83, 5-(isoxazole-4-yl)-2-methoxy-N-(5-oxo-5,6,7,8-tetrahydro-1,6-naphthyridine-3-yl)benzenesulfonamide] | ≥ 50 |  |
| 10 to 100 | COc1ccc(Cl)cc1S(=O)(=O)Nc1cnc2c(c1)CN(C(=O)NCC1CC1)CC2 [Example 116, 3-((5-chloro-2-methoxyphenyl)sulfonamido)-N-(cyclopropylmethyl)-7,8-dihydro-1,6-naphthyridine-6(5H)-carboxamide] | ≥ 50 |  |
